Data published in patent US20240358693A1, “METHODS OF TREATING PAIN” (Aisa Pharma, Inc., priority 2023, published 2024).

Tested on: participants with Raynaud's Phenomenon secondary mostly to systemic sclerosis (SSc-RP)
Experiment: Frequency of weekly symptomatic RP attacks (patient diary), Phase 2a study Part A
Type: in vivo, human
Procedure: A randomized, placebo-controlled phase 2a study was performed and is in progress to assess the safety and efficacy of cilnidipine (10 mg and 20 mg) alone and in combination with 5 mg tadalafil, in participants with diagnosis of scleroderma and/or secondary Raynaud's disease.
The relevant metrics measured by this tool daily are: • Study medication • SSc-RP symptoms (Reporting an attack including duration of attack) • Severity of the attack considering all symptoms of the attack e.g., tingling, numbness, pain, color changes (VAS 0-10 cm scale) • Participant's location at the time of the attack (inside home/outside home) • Selecting symptoms experienced during the attack (tingling, numbness, pain, color changes, other) • Pain rating during the attack (11-point Likert scale) • The RCS based on how much difficulty participants had with Raynaud's today, how many attacks the participant had, and how long they lasted. Participants will also be asked to consider how much pain, numbness, or other symptoms the Raynaud's caused in fingers (including painful sores), and how much the Raynaud's alone affected the use of hands today (VAS 0-10 cm scale).
Percent change from baseline evaluation for frequency of weekly RP attacks were or will be used as the primary efficacy variable. The sponsor-developed participant-informed diary will be used to record data. Frequency of weekly RP attacks is defined as the total number of RP attacks divided by the number of days with available diary data within the last 7 days of each dosing period then multiplied by 7. Total number of RP attacks during the last 7 days of screening period divided by the number of days with available data then multiplied by 7 will be used as baseline for the analysis of all periods. The variable will be calculated as follows:
Percentage change={(weekly RP attacks for the last 7 days of each dosing period−Baseline weekly RP attacks)/Baseline weekly RP attacks}*100%.
Absolute change=weekly RP attacks for the last 7 days of each dosing period−Baseline weekly RP attacks
Percent change from baseline evaluation for frequency of weekly RP attacks was and will be the primary efficacy endpoint. Frequency of weekly RP attacks is defined as the total number of RP attacks divided by the number of days with available diary data within the last 7 days of each dosing period then multiplied by 7. Total number of RP attacks during the last 7 days of screening period divided by the number of days with available data then multiplied by 7 will be used as baseline for the analysis of all periods.
The following data was actually obtained in accordance with the protocol and plan delineated in Examples 1 and 2. The accompanying data involved 11 patients out of the planned 76 patient study. The study was done in patients with scleroderma (systemic sclerosis) who had relatively frequent Raynaud symptoms as they needed to average at least one attack per day during a screening period of up to two weeks. In this first phase of this double-blind placebo-controlled, prospective randomized study, patients were treated in parallel and after meeting study criteria were randomized to receive either placebo, cilnidipine 10 mg daily, cilnidipine 20 mg daily, tadalafil 5 mg daily, cilnidipine 10 mg plus 5 mg of tadalafil, or cilnidipine 20 mg plus 5 mg of tadalafil.

[1] = Pooled Cilnidipine 20 mg and Cilnidipine 20 mg + Tadalafil 5 mg, n 4, Excluding Outliers, ITT Part A
[2] = Pooled Cilnidipine (N = 3), ITT Part A
[3] = Pooled Cilnidipine, n 3, Excluding Outliers, ITT Part A
[4] = Pooled Cilnidipine, n 3, by Baseline RCS, 1st block (RCS <5.0), ITT Part A
[5] = all cilnidipine and cilnidipine plus tadalafil treated patients (n=7)
[6] = excluding outliers, by baseline RCS, first subgroup, cilnidipine 10 mg, tadalafil 5 mg daily
[7] = excluding outliers, by baseline RCS, first subgroup, cilnidipine 20 mg, tadalafil 5 mg daily
[8] = excluding outliers, by baseline RCS, first subgroup, pooled cilnidipine 10 mg and 20 mg, tadalafil 5 mg daily

Structure (SMILES): COCCOC(=O)C1=C(C)NC(C)=C(C(=O)OC/C=C/c2ccccc2)C1c1cccc([N+](=O)[O-])c1 (centres unmarked) [Cilnidipine, cilnidipine]
- Weekly Symptomatic RP Attacks Change from Baseline, Median [1]: −3.50
- Weekly Symptomatic RP Attacks Percent Change from Baseline, Mean (SD) [1]: −25.00 (14.410) %
- Weekly Symptomatic RP Attacks Percent Change from Baseline, Median [1]: −28.17%
- Weekly Symptomatic RP Attacks, Mean (SD) [1]: 9.75 (3.403)
- Weekly Symptomatic RP Attacks, Median [1]: 10.50
- Weekly Symptomatic RP Attacks Change from Baseline, Mean [2]: −5.33
- Weekly Symptomatic RP Attacks Change from Baseline, Median [2]: −7.00
- Weekly Symptomatic RP Attacks Percent Change from Baseline, Mean [2]: −33.60%
- Weekly Symptomatic RP Attacks Percent Change from Baseline, Median [2]: −33.33%
- Weekly Symptomatic RP Attacks, Mean [2]: 10.00
- Weekly Symptomatic RP Attacks, Median [2]: 11.00
- Weekly Symptomatic RP Attacks Change from Baseline, Mean (SD) [3]: −5.33 (2.887)
- Weekly Symptomatic RP Attacks Change from Baseline, Median [3]: −7.00
- Weekly Symptomatic RP Attacks Percent Change from Baseline, Mean (SD) [3]: −33.60 (5.164) %
- Weekly Symptomatic RP Attacks Percent Change from Baseline, Median [3]: −33.33%
- Weekly Symptomatic RP Attacks, Mean (SD) [3]: 10.00 (4.583)
- Weekly Symptomatic RP Attacks, Median [3]: 11.00
- Weekly Symptomatic RP Attacks Change from Baseline, Mean (SD) [4]: −5.33 (2.887)
- Weekly Symptomatic RP Attacks Change from Baseline, Median [4]: −7.00
- Weekly Symptomatic RP Attacks Percent Change from Baseline, Mean (SD) [4]: −33.60 (5.164) %
- Weekly Symptomatic RP Attacks Percent Change from Baseline, Median [4]: −33.33%
- Weekly Symptomatic RP Attacks, Mean (SD) [4]: 10.00 (4.583)
- Weekly Symptomatic RP Attacks, Median [4]: 11.00
- patients in whom the average frequency of Raynaud's attacks decreased more than 25% [5]: 6 of 7
- weekly frequency of Raynaud attacks, direction of change [5]: decrease
- reduction in the weekly frequency of attacks, range (baseline RCS <5.0, all cilnidipine and cilnidipine plus tadalafil treated patients (n=5)): 28%-44%
- Weekly Symptomatic RP Attacks Change from Baseline, Max [6]: −7.0, −7.0
- Weekly Symptomatic RP Attacks Change from Baseline, Mean (SD) [6]: −7.00
- Weekly Symptomatic RP Attacks Change from Baseline, Median [6]: −7.00
- Weekly Symptomatic RP Attacks Change from Baseline, Min [6]: −7.0, −7.0
- Weekly Symptomatic RP Attacks Change from Baseline, Q1 [6]: −7.00, −7.00
- Weekly Symptomatic RP Attacks Change from Baseline, Q3 [6]: −7.00, −7.00
- Weekly Symptomatic RP Attacks Percent Change from Baseline, Max [6]: −33.3, −33.3%
- Weekly Symptomatic RP Attacks Percent Change from Baseline, Mean (SD) [6]: −33.33%
- Weekly Symptomatic RP Attacks Percent Change from Baseline, Median [6]: −33.33%
- Weekly Symptomatic RP Attacks Percent Change from Baseline, Min [6]: −33.3, −33.3%
- Weekly Symptomatic RP Attacks Percent Change from Baseline, Q1 [6]: −33.33, −33.33%
- Weekly Symptomatic RP Attacks Percent Change from Baseline, Q3 [6]: −33.33, −33.33%
- Weekly Symptomatic RP Attacks, Max [6]: 14.0, 14.0
- Weekly Symptomatic RP Attacks, Mean (SD) [6]: 14.00
- Weekly Symptomatic RP Attacks, Median [6]: 14.00
- Weekly Symptomatic RP Attacks, Min [6]: 14.0, 14.0
- Weekly Symptomatic RP Attacks, Q1 [6]: 14.00, 14.00
- Weekly Symptomatic RP Attacks, Q3 [6]: 14.00, 14.00
- Weekly Symptomatic RP Attacks Change from Baseline, Max [7]: −2.0
- Weekly Symptomatic RP Attacks Change from Baseline, Mean (SD) [7]: −4.50 (3.536)
- Weekly Symptomatic RP Attacks Change from Baseline, Median [7]: −4.50
- Weekly Symptomatic RP Attacks Change from Baseline, Min [7]: −7.0
- Weekly Symptomatic RP Attacks Change from Baseline, Q1 [7]: −7.00
- Weekly Symptomatic RP Attacks Change from Baseline, Q3 [7]: −2.00
- Weekly Symptomatic RP Attacks Percent Change from Baseline, Max [7]: −28.6%
- Weekly Symptomatic RP Attacks Percent Change from Baseline, Mean (SD) [7]: −33.73 (7.296) Percent
- Weekly Symptomatic RP Attacks Percent Change from Baseline, Median [7]: −33.73%
- Weekly Symptomatic RP Attacks Percent Change from Baseline, Min [7]: −38.9%
- Weekly Symptomatic RP Attacks Percent Change from Baseline, Q1 [7]: −38.89%
- Weekly Symptomatic RP Attacks Percent Change from Baseline, Q3 [7]: −28.57%
- Weekly Symptomatic RP Attacks, Max [7]: 11.0
- Weekly Symptomatic RP Attacks, Mean (SD) [7]: 8.00 (4.243)
- Weekly Symptomatic RP Attacks, Median [7]: 8.00
- Weekly Symptomatic RP Attacks, Min [7]: 5.0
- Weekly Symptomatic RP Attacks, Q1 [7]: 5.00
- Weekly Symptomatic RP Attacks, Q3 [7]: 11.00
- Weekly Symptomatic RP Attacks Change from Baseline, Max [8]: −2.0
- Weekly Symptomatic RP Attacks Change from Baseline, Mean (SD) [8]: −5.33 (2.887)
- Weekly Symptomatic RP Attacks Change from Baseline, Median [8]: −7.00
- Weekly Symptomatic RP Attacks Change from Baseline, Min [8]: −7.0
- Weekly Symptomatic RP Attacks Change from Baseline, Q1 [8]: −7.00
- Weekly Symptomatic RP Attacks Change from Baseline, Q3 [8]: −2.00
- Weekly Symptomatic RP Attacks Percent Change from Baseline, Max [8]: −28.6%
- Weekly Symptomatic RP Attacks Percent Change from Baseline, Mean (SD) [8]: −33.60 (5.164) Percent
- Weekly Symptomatic RP Attacks Percent Change from Baseline, Median [8]: −33.33%
- Weekly Symptomatic RP Attacks Percent Change from Baseline, Min [8]: −38.9%
- Weekly Symptomatic RP Attacks Percent Change from Baseline, Q1 [8]: −38.89%
- Weekly Symptomatic RP Attacks Percent Change from Baseline, Q3 [8]: −28.57%
- Weekly Symptomatic RP Attacks, Max [8]: 14.0
- Weekly Symptomatic RP Attacks, Mean (SD) [8]: 10.00 (4.583)
- Weekly Symptomatic RP Attacks, Median [8]: 11.00
- Weekly Symptomatic RP Attacks, Min [8]: 5.0
- Weekly Symptomatic RP Attacks, Q1 [8]: 5.00
- Weekly Symptomatic RP Attacks, Q3 [8]: 14.00
